Results published in the NIST ThermoML archive (doi:10.1016/j.fluid.2012.09.027).
± gives the expanded uncertainty stated by the source.

Tests used:
[1] = Crystal; DTA
[2] = Molar enthalpy of transition or fusion; details: Crystal; DSC

- Normal melting temperature [1]: 169 ± 1 °C
- Molar enthalpy of transition or fusion [2]: 27.7 ± 0.79 kJ/mol
SMILES: CCOc1nc2cccc(C(=O)OC(C)OC(=O)OC3CCCCC3)c2n1Cc1ccc(-c2ccccc2)c(-c2nnn[nH]2)c1 (configuration not stated)
